Data: publication PMC10458253, “Unraveling the In Vitro Toxicity Profile of Psychedelic 2C Phenethylamines and Their N-Benzylphenethylamine (NBOMe) Analogues” (Pharmaceuticals, 2023)

How the values were obtained:
[1] = tested on: differentiated SH-SY5Y cells; assay: Neutral red uptake cytotoxicity assay, differentiated SH-SY5Y; format: cell-based; conditions: 24 h; for Top (maximal effect): maximum cell death of fitted curve; for EC50: Homo sapiens, cell death curves 0–1500 µM, read-out: EC50 (half-maximum-effect concentration)
Description: (§1) SH-SY5Y cells were acquired from the American Type Culture Collection (Manassas, VA, USA). Cells were cultured in 25 cm^2 flasks using DMEM—high glucose supplemented with 10% heat-inactivated FBS, 1% MEM non-essential amino acids and 1% penicillin/streptomycin mixture, and maintained in a 5% CO2–95% air atmosphere, at 37 °C, until 80% confluence. Cells were routinely subcultured using trypsin-EDTA and, to avoid phenotypic alterations, were always used between passages 23 and 29. In all experiments, the cells were seeded at a density of 25,000 cells/cm^2. As previously described, to achieve a dopaminergic neuronal phenotype, the cells were seeded in a complete DMEM medium containing 10 μM retinoic acid and, after 3 days, 80 nM TPA was added to the cultures for another 3 days.
(§2) Neutral red uptake and resazurin reduction assays were performed after exposure of differentiated SH-SY5Y and HepG2 cells to the drugs under study. To obtain a concentration–response curve, a broad concentration range (0–2000 µM) was investigated, and cytotoxicity was evaluated 24 h after exposure in 96-well cell culture plates. As previously described, neutral red uptake assay is based on the incorporation of neutral red dye into the lysosomes of viable cells and the amount of dye incorporated represents the cells’ lysosomal functionality, and resazurin reduction assay is based on the irreversible reduction of resazurin dye to the fluorescent resorufin product by metabolically active cells.
(§3) Briefly, 24 h after being exposed to different concentrations of the compounds, differentiated SH-SY5Y cells were incubated with either neutral red (50 µg/mL) or resazurin (10 µg/mL) solutions for 90 min, at 37 °C, in a 5% CO2–95% air atmosphere. For HepG2 cells, 24 h after the exposure to the tested drugs, the cells were incubated with either neutral red (50 µg/mL) or resazurin (10 µg/mL) solutions for 45 and 60 min, respectively, at 37 °C, in a 5% CO2–95% air atmosphere.
(§4) In the neutral red uptake assay, at the end of the incubation period, the cell culture medium was removed and a solution of absolute ethyl alcohol/distilled water (1:1) with 5% acetic acid was added to extract the dye absorbed only by the viable cells. The absorbance was measured at 540 nm in a multi-well plate reader (PowerWaveX BioTek Instruments, Winooski, VT, USA). In the resazurin assay, at the end of the incubation period, the fluorescence was measured at 530 nm excitation and 590 nm emission wavelengths in a multi-well plate reader (PowerWaveX BioTek Instruments, Winooski, VT, USA).
(§5) The results were expressed as a percentage of control cells. At least four independent experiments were performed, in triplicate. For differentiated SH-SY5Y cells, the neutral red uptake assay was identified as the most sensitive assay and, therefore, used for the subsequent experiments. On the other hand, for HepG2 cells, the resazurin reduction assay was identified as the most sensitive assay and, therefore, used for the subsequent experiments.

[2] = tested on: HepG2 cells; assay: Resazurin reduction cytotoxicity assay, HepG2; format: cell-based; conditions: HepG2, 24 h; for Top (maximal effect): maximum cell death of fitted curve; for EC50: Homo sapiens, cell death curves 0–2000 µM, read-out: EC50 (half-maximum-effect concentrations)
Description: HepG2 cells were acquired from the American Type Culture Collection (Manassas, VA, USA). Cells were cultured in 75 cm^2 flasks using DMEM—high glucose supplemented with a 10% heat inactivated FBS and 1% penicillin/streptomycin mixture, and maintained in a 5% CO2–95% air atmosphere, at 37 °C, until 80% confluence. Cells were routinely subcultured using trypsin-EDTA and, to avoid phenotypic alterations, used between passages 16 and 22. In all experiments, the cells were seeded at a density of 250,000 cells/cm^2 and used 24 h after seeding.
as §2, §3, §4, §5

[3] = CHI on Immobilized Artificial Membrane (IAM) HPLC, Kpcell; format: physicochemical; conditions: partition between internal and external cellular media; estimated from experimental CHI(IAM)
Description: The CHI on IAM (CHI (IAM)) values were determined from the experimental tR obtained on the HPLC system with an IAM.PC.DD2 column (100 × 4.6 mm, 10 µm, Regis Technologies, Inc., Morton Grove, IL, USA). […] The Log Kpcell (partition between internal and external cellular media) values were estimated from the drugs’ experimental CHI IAM values using Equations (2) and (3) described elsewhere. Log kIAM = 0.046 CHI(IAM) + 0.42(2) Log Kpcell = 1.1 Log kIAM(3)

[4] = tested on: differentiated SH-SY5Y cells; assay: Resazurin reduction cytotoxicity assay, differentiated SH-SY5Y; format: cell-based; conditions: 24 h; for Top (maximal effect): maximum cell death of fitted curve; for EC50: Homo sapiens, cell death curves 0–1500 µM, read-out: EC50 (half-maximum-effect concentration)
Description: as §1, §2, §3, §4, §5

[5] = tested on: differentiated SH-SY5Y cells; assay: Effect of MAO inhibitors on drug cytotoxicity (neutral red uptake), differentiated SH-SY5Y; format: cell-based; conditions: 24 h; for change of drug cytotoxicity with rasagiline (neutral red uptake): 1 µM rasagiline (MAO-B inhibitor), drug concentrations as given in the source
Description: MAO inhibition was used to elucidate the impact of MAO-A and MAO-B in the cytotoxicity of the tested drugs. […] The drugs’ cytotoxicity was then assessed through the neutral red uptake assay and the results were expressed as percentage of control cells. At least four independent experiments were performed, in triplicate.

[6] = Chromatographic Hydrophobicity Index (CHI) by HPLC, CHILogD7.4; conditions: pH 7.4
Description: The CHI values at pH 7.4 were determined using an experimental protocol described elsewhere [23, 25]. The CHI values were assessed from experimental retention times (tR) of the compounds under study and a mixture of reference compounds obtained on the HPLC system with a Luna C18 (2) column (150 × 4.6 mm, 5 µm, Phenomenex, CA, USA). […] Mobile phase A was 10 mM ammonium acetate (pH 7.4) and mobile phase B was acetonitrile. The following gradient program was applied: 0–7 min 0–100% B, 7–15 min 100% B, 15–17 min 100–0% B. The flow was 1 mL/min, and the injection volume was 40 μL.

[7] = tested on: HepG2 cells; assay: Effect of CYP inhibitors on drug cytotoxicity (resazurin reduction), HepG2; format: cell-based; conditions: HepG2, 24 h, drug concentrations as given in the source; for change of resazurin reduction with ketoconazole vs drug alone: 1 μM ketoconazole; for change of resazurin reduction with ABT vs drug alone: 1000 μM ABT; for change of resazurin reduction with quinidine vs drug alone: 10 μM quinidine
Description: Analogously to the studies performed in the neuronal model, the impact of the CYP-mediated metabolism on the cytotoxicity of the tested drugs was also evaluated, in HepG2 cells, 24 h after exposure to the drugs in the presence or absence of different CYP inhibitors: 1000 μM ABT, 10 μM quinidine or 1 μM ketoconazole.
CYP inhibition assay was used to evaluate the drugs’ potential to inhibit drug-metabolizing enzymes. Accordingly, SH-SY5Y and HepG2 cells were seeded in 96-well cell culture plates and pre-incubated with 1000 µM ABT—a non-isoform specific CYP450 inhibitor, 10 µM quinidine—a CYP2D6 inhibitor or 1 µM ketoconazole—a CYP3A4 inhibitor. After 1 h, the drugs (0–500 µM) were co-incubated with the inhibitors for 24 h, at 37 °C, in a 5% CO2–95% air atmosphere. The drugs’ cytotoxicity was then assessed through the neutral red uptake assay for differentiated SH-SY5Y cells, and through the resazurin reduction assay for HepG2 cells, and the results were expressed as percentage of control cells. At least four independent experiments were performed, in triplicate.

[8] = PAMPA-BBB permeability assay
From the text: In the present study we used a Parallel Artificial Membrane Permeation Assay (PAMPA) with a membrane mimicking the BBB phospholipidic composition (PAMPA-BBB) to evaluate and predict passive, transcellular permeability of the mescaline-NBOMe, 25B-NBOMe and 25N-NBOMe drugs.
The PiON inc database software was used for data analysis.

[9] = 1 µM clorgyline (MAO-A inhibitor), drug 50-250 µM

Row | SMILES | Bottom (baseline) [1] | Hill Slope [1] | Top (maximal effect) [1] | EC50 [1] | Bottom (baseline) [2] | Hill Slope [2] | Top (maximal effect) [2] | EC50 [2] | Kpcell [3] | Bottom (baseline) [4] | Hill Slope [4] | Top (maximal effect) [4] | EC50 [4] | change of drug cytotoxicity with rasagiline (neutral red uptake) [5] | chromatographic logD [6] | change of resazurin reduction with ketoconazole vs drug alone [7] | change of resazurin reduction with ABT vs drug alone [7] | change of resazurin reduction with quinidine vs drug alone [7] | −Log Pe ± SD [8] | change of drug cytotoxicity with clorgyline (neutral red uptake) [5, 9] | further results
1 | COc1cc(CCN)c(OC)cc1Br [2C-B, 4-Bromo-2,5-dimethoxy-β-phenethylamine] | 1.900 | 1.746 | 93.68 | 165 µM | 1.072 | 3.731 | 89.29 | 206 µM | 3.08 | 7.210 | 1.670 | 83.95 | 225 µM | significantly increased the cytotoxicity | 0.7 | significant decrease in the cells’ metabolic capacity | small but significant decrease in resazurin reduction |  |  |  | 
2 | COc1cc([N+](=O)[O-])c(OC)cc1CCN [2C-N, 2,5-dimethoxy-4-nitrophenethylamine] | 6.911 | 2.691 | ≈100 | 733 µM | 0.2545 | 2.334 | ≈100 | 834 µM | 0.94 | 4.440 | 1.627 | ≈100 | 832 µM | significantly increased the cytotoxicity | 0.37 | significant increase in the metabolic capacity of cells |  | significant increase in the metabolic capacity of cells |  |  | 
3 | COc1cc(CCNCc2ccccc2OC)c(OC)cc1Br [25B-NBOMe, 4-Bromo-2,5-dimethoxy-N-(2-methoxybenzyl)-β-phenethylamine] | 0.0825 | 2.687 | 87.85 | 33.9 µM | 4.552 | 3.079 | 89.49 | 32.8 µM | 9.08 | 6.827 | 4.464 | 80.62 | 58.4 µM | significant increase in cell viability | 2.32 | significant decrease in the cells’ metabolic capacity | small but significant decrease in resazurin reduction |  | 4.4 ± 0.36 |  | 
4 | COc1cc([N+](=O)[O-])c(OC)cc1CCNCc1ccccc1OC [25N-NBOMe, 4-Nitro-2-dimethoxy-N-(2-methoxybenzyl)-β-phenethylamine] | 2.841 | 5.758 | 87.38 | 125 µM | 3.464 | 5.089 | 87.26 | 99.7 µM | 5.05 | 0.9223 | 4.692 | 80.10 | 154 µM | significant increase in cell viability | 1.96 | no significant changes in resazurin reduction | small but significant decrease in resazurin reduction | no significant changes in resazurin reduction | 4.6 ± 0.34 | significantly increased the cytotoxicity | 
5 | COc1cc(CCN)cc(OC)c1OC.Cl [Mescaline, 3,4,5-Trimethoxyphenethylamine hydrochloride] |  |  |  |  |  |  |  |  |  |  |  |  |  |  |  | No significant changes | No significant changes | No significant changes |  | significantly increased the cytotoxicity | cytotoxicity (in words) ([2]; 0–2000 µM): not causing a significant cytotoxicity; cytotoxic effect (in words) ([4]; 0–1500 µM): no significant cytotoxic effects
6 | COc1ccccc1CNCCc1cc(OC)c(OC)c(OC)c1 [Mescaline-NBOMe, 3,4,5-Trimethoxy-N-(2-methoxybenzyl)-β-phenethylamine] | 1.218 | 2.681 | 98.57 | 406 µM | −0.3754 | 3.411 | 87.43 | 426 µM | 2.71 | 2.774 | 2.524 | 94.72 | 677 µM | significantly increased the cytotoxicity | 1.34 | no significant changes in resazurin reduction | small but significant decrease in resazurin reduction | no significant changes in resazurin reduction | 4.7 ± 0.49 | significantly increased the cytotoxicity | change of drug cytotoxicity with clorgyline (neutral red uptake) ([5]; 1 µM clorgyline, 500 µM drug concentration): significant increase in cell viability
